Test results taken from the NIST ThermoML archive (doi:10.1016/j.jct.2010.08.010).

Conditions: Liquid, Buoyancy - hydrostatic balance with magnetic suspension - one sinker

CCO [ethanol]
Conditions	mass density [kg/m3]
353.15 K, 5946.1 kPa	742.072
353.15 K, 8005.6 kPa	744.473
353.15 K, 10092 kPa	746.834
353.15 K, 12108 kPa	749.042
353.15 K, 14010 kPa	751.074
353.15 K, 16061 kPa	753.214
353.15 K, 18136 kPa	755.321
353.15 K, 20137 kPa	757.302
353.15 K, 22100 kPa	759.195
353.15 K, 24062 kPa	761.047
353.15 K, 26069 kPa	762.906
353.15 K, 28075 kPa	764.73
353.15 K, 30016 kPa	766.442
373.15 K, 1102.9 kPa	715.263
373.15 K, 2003.4 kPa	716.613
373.15 K, 4088.3 kPa	719.636
373.15 K, 6108.7 kPa	722.45
373.15 K, 8076 kPa	725.091
373.15 K, 10096 kPa	727.71
373.15 K, 12124 kPa	730.256
373.15 K, 14044 kPa	732.583
373.15 K, 16078 kPa	734.983
373.15 K, 18122 kPa	737.319
373.15 K, 20098 kPa	739.516
373.15 K, 22116 kPa	741.702
373.15 K, 24049 kPa	743.742
373.15 K, 26068 kPa	745.822
373.15 K, 28108 kPa	747.871
373.15 K, 29942 kPa	749.678
393.15 K, 1102.9 kPa	691.923
393.15 K, 2003.6 kPa	693.559
393.15 K, 3981 kPa	697.012
393.15 K, 6085.6 kPa	700.514
393.15 K, 8006.1 kPa	703.56
393.15 K, 10040 kPa	706.659
393.15 K, 12072 kPa	709.623
393.15 K, 14119 kPa	712.504
393.15 K, 16086 kPa	715.168
393.15 K, 18081 kPa	717.782
393.15 K, 19900 kPa	720.097
393.15 K, 22039 kPa	722.726
393.15 K, 24041 kPa	725.121
393.15 K, 26092 kPa	727.505
393.15 K, 28070 kPa	729.738
393.15 K, 29851 kPa	731.71
413.15 K, 1102.6 kPa	665.097
413.15 K, 2002.8 kPa	667.194
413.15 K, 4113.3 kPa	671.781
413.15 K, 6094.1 kPa	675.838
413.15 K, 8091.5 kPa	679.694
413.15 K, 10044 kPa	683.283
413.15 K, 11973 kPa	686.66
413.15 K, 14085 kPa	690.174
413.15 K, 16053 kPa	693.316
413.15 K, 18080 kPa	696.427
413.15 K, 20003 kPa	699.262
413.15 K, 22069 kPa	702.204
413.15 K, 24049 kPa	704.916
413.15 K, 26035 kPa	707.559
413.15 K, 27916 kPa	709.988
413.15 K, 30021 kPa	712.618
433.15 K, 2003.3 kPa	636.052
433.15 K, 4004.9 kPa	641.895
433.15 K, 6117.7 kPa	647.513
433.15 K, 7970.2 kPa	652.088
433.15 K, 10076 kPa	656.927
433.15 K, 12092 kPa	661.27
433.15 K, 14024 kPa	665.195
433.15 K, 16095 kPa	669.184
433.15 K, 17956 kPa	672.597
433.15 K, 20025 kPa	676.22
433.15 K, 22076 kPa	679.658
433.15 K, 23970 kPa	682.703
433.15 K, 26097 kPa	685.993
433.15 K, 27971 kPa	688.786
433.15 K, 29931 kPa	691.61
453.15 K, 2000.7 kPa	597.505
453.15 K, 4003.1 kPa	606.126
453.15 K, 5998.3 kPa	613.615
453.15 K, 7995.3 kPa	620.308
453.15 K, 10007 kPa	626.429
453.15 K, 12086 kPa	632.177
453.15 K, 14048 kPa	637.222
453.15 K, 15954 kPa	641.798
453.15 K, 17939 kPa	646.288
453.15 K, 20012 kPa	650.704
453.15 K, 22018 kPa	654.751
453.15 K, 24140 kPa	658.813
453.15 K, 25982 kPa	662.178
453.15 K, 28127 kPa	665.939
453.15 K, 30017 kPa	669.115
473.15 K, 4002.6 kPa	562.328
473.15 K, 6007.1 kPa	573.872
473.15 K, 8001.4 kPa	583.438
473.15 K, 10006 kPa	591.752
473.15 K, 12009 kPa	599.085
473.15 K, 14093 kPa	605.96
473.15 K, 15977 kPa	611.66
473.15 K, 18013 kPa	617.325
473.15 K, 20010 kPa	622.485
473.15 K, 21973 kPa	627.259
473.15 K, 24020 kPa	631.94
473.15 K, 25868 kPa	635.925
473.15 K, 28002 kPa	640.289
473.15 K, 30014 kPa	644.229
